Test results taken from paper PMC8381602, “Non-palm Plant Volatile α-Pinene Is Detected by Antenna-Biased Expressed Odorant Receptor 6 in the Rhynchophorus ferrugineus (Olivier) (Coleoptera: Curculionidae)” (Frontiers in Physiology, 2021).
pEC50: −log10 of the molar value.

System: T1, RferOr6/RferOrco
T1 construct: full-length ORF of RferOr6 (382 residues, 7 predicted TMDs) cloned from antennal cDNA in pT7TS; cRNA co-injected 1:1 with RferOrco in Xenopus oocytes; with Odorant receptor coreceptor
Experiment: two-electrode voltage clamp, Xenopus oocytes, dose-response
Type: cell-based, Rhynchophorus ferrugineus
Settings: agonist; co-expressed with RferOrco 1:1; holding potential -80 mV; Ringer's buffer pH 7.6; 20 s exposure

pEC50: 4.02
SMILES: CC1=CCC2CC1C2(C)C (stereo not drawn) [α-pinene]
